Test results from US10201556B2, “Combination for use in treating diseases or conditions associated with melanoma, or treating diseases or conditions associated with activated B-raf pathway” (InteRNA Technologies B.V., priority 2012, dated 2019).
“Also recorded” adds a separate entry of the source.

How the values were obtained:
Format in all cases: cell-based, human
BCL2 = assay: Western immunoblotting of BCL2 protein levels
Method: (§1) As control a scrambled miRNA and a non-targeting siRNA pool were included. Proteins were harvested 72 hrs post transfection using RIPA buffer supplemented with HALT™ Phosphatase Inhibitor (Thermo Scientific) and Protease Inhibitor Cocktail (Sigma). […] The membranes were blocked in 5% milk in TBS-T and incubated O/N at 4° C. with primary antibodies to bRAF, total ERK1/2, phosphoERK1/2, CDK4, BCL2 and tubulin (Santa Cruz). After incubation with secondary goat-anti-mouse antibodies (Santa Cruz), membranes were developed using ECL (Pierce).
as §1, with “Proteins” for “As control a scrambled miRNA and a non-targeting siRNA pool were included. Proteins”
As control a scrambled miRNA was included. Proteins were harvested 72 hrs post transfection using RIPA buffer supplemented with HALT™ Phosphatase Inhibitor (Thermo Scientific) and Protease Inhibitor Cocktail (Sigma). Fifteen μg protein was loaded on 10% TGX acrylamide gels (Bio-Rad) and subsequently transferred to PVDF membranes. The membranes were blocked in 5% milk in TBS-T and incubated O/N at 4° C. with primary antibodies to bRAF, total ERK1/2, phosphoERK1/2, BCL2, CDK4 and tubulin (Santa Cruz). After incubation with secondary goat-anti-mouse antibodies (Santa Cruz), membranes were developed using ECL (Pierce).
Proteins were isolated using RIPA buffer (50 mM Tris pH 8.0, 150 mM NaCL, 1% NP-40, 0.5% Sodium deoxycholate, 0.1% SDS), supplemented with Protease Inhibitor Cocktail (Sigma) and Halt™ Phosphatase Inhibitor Cocktail (Pierce/Thermo Scientific). […] Membranes were blocked in 5% milk or 5% BSA in TBS-T, and incubated O/N at 4° C. with primary antibodies against α-tubulin (1:5000), BRAF, pERK1/2, CDK4, RRM2 (all 1:1000), BCL-2 (1:500) (Santa Cruz), total-ERK1/2 (1:2000), BIRC5, AURKB (1:1000) (Cell Signaling), ERK1 (1:2000) (GeneTex). After incubation with appropriate secondary antibodies and western blot chemiluminescence substrate ECL (Pierce/Thermo Scientific), membranes were exposed to CL-XPosure Film (Pierce/Thermo Scientific).

BIRC5 = assay: Western blotting of BIRC5 protein levels
Method: Transfection was performed as described in Example 4 in 6-well format. Proteins were isolated using RIPA buffer (50 mM Tris pH 8.0, 150 mM NaCL, 1% NP-40, 0.5% Sodium deoxycholate, 0.1% SDS), supplemented with Protease Inhibitor Cocktail (Sigma) and Halt™ Phosphatase Inhibitor Cocktail (Pierce/Thermo Scientific). Fifteen μg protein was loaded on a 12% Mini-PROTEAN® TGX™ Precast Gel (Bio-Rad), and proteins were transferred to Immun-Blot PVDF Membrane (Bio-Rad). Membranes were blocked in 5% milk or 5% BSA in TBS-T, and incubated O/N at 4° C. with primary antibodies against α-tubulin (1:5000), BRAF, pERK1/2, CDK4, RRM2 (all 1:1000), BCL-2 (1:500) (Santa Cruz), total-ERK1/2 (1:2000), BIRC5, AURKB (1:1000) (Cell Signaling), ERK1 (1:2000) (GeneTex). After incubation with appropriate secondary antibodies and western blot chemiluminescence substrate ECL (Pierce/Thermo Scientific), membranes were exposed to CL-XPosure Film (Pierce/Thermo Scientific).

[1] = tested on: A375Hu melanoma cell line; assay: Anti-proliferative effect of miRNA mimics, MTS assay; settings: 10 nM mimic, 72 hours after transfection
Method: (§2) The anti-proliferative effect of miRNA's in melanoma cell lines was determined with mature miRNA mimics from Ambion. For each cell line optimal growth and transfection conditions were determined prior to the experiment. Cells were plated in a 96-well plate at 3000 cells per well (100 uL) and were grown at 37 C, 5% CO2. Transfection mix (20 uL per well) was made for each miRNA mimic concentration with 0.3 uL (M249, M249-R4) or 0.5 uL (A375Hu, A375Hu-R1, A2058, RPMI-7951) X-TremeGene (Roche) per well (according to manufacturer's instructions) in Optimem (Invitrogen). Cells were transfected 24 hours after plating in triplicate. Medium was replaced 48 hours after transfection with fresh medium.

[2] = tested on: A375Hu-R1 melanoma cell line; assay: as above; settings: 10 nM mimic, 72 hours after transfection
Method: as §2

[3] = tested on: ERK1/MAPK3, RRM2, AURKB, CDK4, BCL2, BIRC5 mRNA; assay: Quantitative real-time PCR of mRNA levels in A375 cells; settings: 10 nM mimic, compared to miRNA control (FIG. 12b)
Method: Total RNA was isolated using TRI Reagent® (Sigma). To detect miR-3157 and U6 (small nuclear RNA RNU6-1) by qPCR, first 100 ng total RNA was mixed with 50 nM of a miR-3157 specific stem-loop (SL) primer or a U6 Reverse Transcriptase (RT) primer (Table 9), 33 μM dNTPs and 50 units M-MLV Reverse Transcriptase (RT) enzyme (Promega) in a 15 μl SL-RT reaction, and incubated for 30 min at 16° C., 30 min at 42° C. and 5 min at 85° C. For cDNA synthesis of total RNA, 1 μg RNA was mixed with 50 units M-MLV RT enzyme, 0.4 μg random hexamers (Qiagen) and 1 mM dNTPs in a 20 μl cDNA synthesis reaction, and incubated 10 min at 25° C., 120 min at 37° C. and 5 min at 85° C. For miR-3157 and U6 quantification, one μl SL-RT product was used for quantification in a single 20 μl qPCR reaction, using iQ™ SYBR® Green (Bio-Rad), and 0.625 μM forward and reverse primer (Table 9). The PCR protocol was 5 min 95° C. (1×), 10 s 95° C./20 s 60° C./10 s 72° C. (×45). For mRNA quantification, 1 μl cDNA was incubated with 1.25 μM gene-specific forward and reverse primers (Table 10) and iQ™ SYBR® Green in a 20 μl qPCR reaction for 5 min at 95° C. (1×), 15 s 95° C./30 s 60° C./30 s 72° C. (×45). PCR amplification was performed on a CFX96 Touch™ Real-Time PCR Detection System (Bio-Rad).

[4] = A375Hu cells, 72 hrs, Western blot
[5] = A375 cells, increasing concentrations of mimic (FIG. 12c)
[6] = A2058, M249, M249-AR4 and M376, increasing concentrations of mimic (FIG. 14a)

Row | Molecule | BCL2 protein levels (BCL2; [4]) | BCL2 protein levels (BCL2; [5]) | BCL2 protein levels (BCL2; [6]) | BCL2 protein levels (BCL2; A2058 cells (vemurafenib resistant), 72 hrs post transfection, Western blot) | BIRC5 protein levels (BIRC5; [5]) | BIRC5 protein levels (BIRC5; [6]) | A375Hu % Viability 10 nM [1] | A375Hu-R1 % Viability 10 nM [2] | mRNA levels of ERK1, RRM2, AURKB, CDK4, BCL2, BIRC5 by qPCR [3] | BCL2 protein levels (BCL2; A375Hu cells, 72 hrs, Western blot, listed as PLX-4032) | BIRC5 protein levels (BIRC5; vemurafenib-resistant A2058, M249-AR4 and M376, 1 μM, 24 hrs (FIG. 14b)) | BIRC5 protein levels (BIRC5; vemurafenib-sensitive A375 and M249, 1 μM, 24 hrs (FIG. 14b))
1 | hsa-miR-3157-5p: mature miRNA mimic, SEQ ID NO 6 UUCAGCCAGGCUAGUGCAGUCU (listed as RNA, chemistry not given here) | significant reduction in BCL2 protein levels; also recorded: down-regulated | strong reduction | no effect | reduction; also recorded: down-regulated | most pronounced | strong downregulation | 42% | 67% | reduced mRNA levels |  |  | 
2 | CCCS(=O)(=O)Nc1ccc(F)c(C(=O)c2c[nH]c3ncc(-c4ccc(Cl)cc4)cc23)c1F [Vemurafenib, N-(3-{[5-(4-chlorophenyl)-1H-pyrrolo[2,3-b]pyridin-3-yl]carbonyl}-2,4-difluorophenyl)propane-1-sulfonamide] | but not CDK4 or BCL2 |  |  |  |  |  |  |  |  | not in reduction of CDK4 and BCL2 protein levels | protein levels similar to control-treated cells | downregulated
